Bridge positions count the residues as written; N and C are the ends. Square brackets hold non-standard residues; d marks the D form. Peptide text beside a SMILES is read from it. S8 = C=CCCCCCC[C@](C)(N)C(=O)O; R5 = C=CCCC[C@@](C)(N)C(=O)O
Assays:
Caspase 3 = Caspase 3 detection assay in SJSA1 cells; type: cell-based; settings: SJSA1, 48 h, Caspase 3 activation over DMSO-treated cells
SJSA-1 cells = assay: Cell lysis by peptidomimetic macrocycles (LDH release); type: cell-based; settings: SJSA-1, 1 h
Method in brief: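 Membrane lysis measured as supernatant LDH after a 1 h, 37 °C exposure of SJSA-1 cells, held in RPMI with 1% FBS, to macrocycles at final 6.25-50 μM with 0.5% DMSO. Lytic references were 10 μM melittin and 1% Triton X-100; DMSO alone served as non-lytic control.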

RKO = assay: Cell viability assay (MTT), RKO; settings: read-out: RKO EC50 (72 h)
SJSA-1 = assay: Cell viability assay (MTT), SJSA-1; settings: read-out: SJSA-1 EC50 (72 h); 72 h, MTT
[1] = Circular dichroism (CD) analysis of alpha-helicity; type: physicochemical; settings: for Molar Ellipticity TFE − Molar Ellipticity Benign / Molar Ellipticity 50% TFE (222 in 50% TFE) / Molar Ellipticity Benign (222 in 0% TFE): 222 nm; for Molar Ellipticity 50% TFE (222 in 50% TFE): CD buffer with 50% TFE; for Molar Ellipticity 50% TFE (222 in 50% TFE) / Molar Ellipticity Benign (222 in 0% TFE): 0.05 mg/ml, 4° C.; for Molar Ellipticity Benign (222 in 0% TFE): benign CD buffer (20 mM phosphoric acid, pH 2); for % Helix benign compared to 50% TFE parent (CD): benign buffer
Method: Peptide solutions were analyzed by CD spectroscopy using a Jasco J-815 spectropolarimeter (Jasco Inc., Easton, Md.) with the Jasco Spectra Manager Ver. 2 system software. A Peltier temperature controller was used to maintain temperature control of the optical cell. Results are expressed as mean molar ellipticity (deg cm^2 dmol^−1) as calculated from the equation [0]=θobs·MRW/10*l*c where θobs is the observed ellipticity in millidegrees, MRW is the mean residue weight of the peptide (peptide molecular weight/number of residues), 1 is the optical path length of the cell in centimeters, and c is the peptide concentration in mg/ml. Peptide concentrations were determined by amino acid analysis. Stock solutions of peptides were prepared in benign CD buffer (20 mM phosphoric acid, pH 2). The stocks were used to prepare peptide solutions of 0.05 mg/ml in either benign CD buffer or CD buffer with 50% trifluoroethanol (TFE) for analyses in a 10 mm pathlength cell. Variable wavelength measurements of peptide solutions were scanned at 4° C. from 195 to 250 nm, in 0.2 nm increments, and a scan rate 50 nm per minute. The average of six scans was reported.

MDM2 (In-house, 41 kD) = target: T1, MDM2 (In-house, 41 kD) (UniProt Q00987 1-125, limits assumed); assay: competitive fluorescence polarization, displacement of FAM-labeled linear peptide from MDM2; grade decoded by the scale of Table 4
T1 construct: Construct limits and any tag are unknown; also called HDM2
T1 sequence (Q00987 1-125 limits assumed): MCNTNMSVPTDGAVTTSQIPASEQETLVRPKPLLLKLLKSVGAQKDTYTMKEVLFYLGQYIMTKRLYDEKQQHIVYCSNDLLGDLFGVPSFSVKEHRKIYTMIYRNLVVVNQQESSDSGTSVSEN

Row | Molecule | caspase 0.3 μM (Caspase 3) | caspase 3 μM (Caspase 3) | caspase 10 μM (Caspase 3) | caspase 30 μM (Caspase 3) | 6.25 μM % Lysed cells (1 h LDH) (SJSA-1 cells) | 25 μM % Lysed cells (1 h LDH) (SJSA-1 cells) | 50 μM % Lysed cells (1 h LDH) (SJSA-1 cells) | EC50 (RKO) | EC50 (SJSA-1) | also measured
1 | CC(=O)N[C@@H](CC(C)C)C(=O)N[C@H](C(=O)N[C@@H](Cc1ccccc1)C(=O)N[C@]1(C)CCCCCC/C=C/CCC[C@@](C)(C(=O)N[C@@H](C)C(=O)N[C@@H](C)C(=O)N[C@@H](C)C(=O)N[C@@H](C)C(=O)N[C@@H](C)C(=O)N[C@H](C)C(N)=O)NC(=O)[C@H](CC(C)C)NC(=O)[C@H](CCC(N)=O)NC(=O)[C@H](C)NC(=O)[C@H](Cc2c[nH]c3ccccc23)NC(=O)[C@H](Cc2ccc(O)cc2)NC(=O)[C@H](CCC(=O)O)NC1=O)[C@@H](C)O [compound 331] | 4.5 | 11 | 14.5 | 30.5 | 0% | 0% | 0% | < 5 µM | < 5 µM | caspase 1 μM (Caspase 3): 8
2 | CC[C@H](C)[C@H](NC(=O)[C@H](C)NC(=O)[C@H](C)NC(=O)[C@]1(C)CCCC=CCCCCCC[C@@](C)(NC(=O)[C@H](Cc2ccccc2)NC(=O)[C@@H](NC(=O)[C@H](CC(C)C)NC(C)=O)[C@@H](C)O)C(=O)N[C@@H](C)C(=O)N[C@@H](Cc2ccc(O)cc2)C(=O)N[C@@H](Cc2c[nH]c3ccccc23)C(=O)N[C@@H](C)C(=O)N[C@@H](CCC(N)=O)C(=O)N[C@@H](CC(C)C)C(=O)N1)C(=O)N[C@H](C)C(N)=O (single isomer, unassigned) [compound 70] |  | 1 | 9 | 26 |  |  |  | < 5 µM | < 5 µM | 
3 | CC(=O)N[C@@H](CC(C)C)C(=O)N[C@H](C(=O)N[C@@H](Cc1ccccc1)C(=O)N[C@]1(C)CCCCCCC=CCCC[C@@](C)(C(=O)N[C@@H](C)C(=O)N[C@H](C)C(=O)N[C@@H](C)C(=O)N[C@@H](C)C(=O)N[C@@H](C)C(=O)N[C@H](C)C(N)=O)NC(=O)[C@H](CC(C)C)NC(=O)[C@H](CCC(N)=O)NC(=O)[C@H](C)NC(=O)[C@H](Cc2c[nH]c3ccccc23)NC(=O)[C@H](Cc2ccc(O)cc2)NC(=O)[C@H](CCC(=O)O)NC1=O)[C@@H](C)O [compound 568] |  |  |  |  |  |  |  |  | 5 to 15 µM | 
4 | CC(=O)N[C@@H](CC(C)C)C(=O)N[C@H](C(=O)N[C@@H](Cc1ccccc1)C(=O)N[C@]1(C)CCCCCCC=CCCC[C@@](C)(C(=O)N[C@@H](C)C(=O)N[C@@H](C)C(=O)N[C@@H](C)C(=O)N[C@@H](C)C(=O)N[C@@H](C)C(=O)N[C@H](C)C(N)=O)NC(=O)[C@H](CC(C)C)NC(=O)[C@H](CCC(N)=O)NC(=O)[C@H](C)NC(=O)[C@H](Cc2c[nH]c3ccccc23)NC(=O)[C@H](Cc2ccc(O)cc2)NC(=O)[C@H](CCC(=O)O)NC1=O)[C@@H](C)O (single isomer, unassigned) [compound 449] |  |  |  |  |  |  |  |  | < 5 µM | 
5 | CC(=O)N[C@@H](CC(C)C)C(=O)N[C@H](C(=O)N[C@@H](Cc1ccccc1)C(=O)N[C@]1(C)CCCCCCC=CCCC[C@@](C)(C(=O)N[C@@H](C)C(=O)N[C@@H](C)C(=O)N[C@@H](C)C(=O)N[C@@H](C)C(=O)N[C@@H](C)C(=O)N[C@H](C)C(N)=O)NC(=O)[C@H](CC(C)C)NC(=O)[C@H](CCC(N)=O)NC(=O)[C@H](C)NC(=O)[C@H](Cc2c[nH]c3ccccc23)NC(=O)[C@H](Cc2ccc(O)cc2)NC(=O)[C@H](CCC(=O)O)NC1=O)[C@@H](C)O (single isomer, unassigned) [compound 579] |  |  |  |  |  |  |  |  | < 5 µM | 
6 | CC(=O)N[C@@H](CC(C)C)C(=O)N[C@H](C(=O)N[C@@H](Cc1ccccc1)C(=O)N[C@]1(C)CCCCCCC=CCCC[C@@](C)(C(=O)N[C@@H](C)C(=O)N[C@@H](C)C(=O)N[C@@H](C)C(=O)N[C@H](C)C(=O)N[C@@H](C)C(=O)N[C@H](C)C(N)=O)NC(=O)[C@H](CC(C)C)NC(=O)[C@H](CCC(N)=O)NC(=O)[C@H](C)NC(=O)[C@H](Cc2c[nH]c3ccccc23)NC(=O)[C@H](Cc2ccc(O)cc2)NC(=O)[C@H](CCC(=O)O)NC1=O)[C@@H](C)O (single isomer, unassigned) [compound 571] |  |  |  |  |  |  |  |  | < 5 µM | 
7 | CCCC[C@H](NC(=O)[C@H](C)NC(=O)[C@H](C)NC(=O)[C@]1(C)CCCC=CCCCCCC[C@@](C)(NC(=O)[C@H](Cc2ccccc2)NC(=O)[C@@H](NC(=O)[C@H](CC(C)C)NC(C)=O)[C@@H](C)O)C(=O)N[C@@H](C)C(=O)N[C@@H](Cc2ccc(O)cc2)C(=O)N[C@@H](Cc2c[nH]c3ccccc23)C(=O)N[C@@H](C)C(=O)N[C@@H](CCC(N)=O)C(=O)N[C@@H](CC(C)C)C(=O)N1)C(=O)N[C@H](C)C(N)=O (single isomer, unassigned) [compound 75] |  |  |  |  | −1% | 1% | 1% |  | < 5 µM | 
8 | CC(=O)N[C@@H](CC(C)C)C(=O)N[C@H](C(=O)N[C@@H](Cc1ccccc1)C(=O)N[C@]1(C)CCCC=CCCCCCC[C@@](C)(C(=O)N[C@@H](C)C(=O)N[C@@H](C)C(=O)N[C@@H](C)C(=O)N[C@@H](C)C(=O)N[C@@H](C)C(=O)N[C@H](C)C(N)=O)NC(=O)[C@H](CC(C)C)NC(=O)[C@H](CCC(N)=O)NC(=O)[C@H](C)NC(=O)[C@H](Cc2c[nH]c3ccccc23)NC(=O)[C@H](Cc2ccc(O)cc2)NC(=O)[C@H](CCC(=O)O)NC1=O)[C@@H](C)O [compound 631] (Ac-LTF[R5]EYWAQL[S8]AAAAA[dA]-NH2; staple 4-11) |  |  |  |  |  |  |  |  | < 5 µM | 
9 | CC[C@H](C)[C@H](NC(=O)[C@H](C)NC(=O)[C@H](C)NC(=O)[C@]1(C)CCC/C=C/CCCCCC[C@@](C)(NC(=O)[C@H](Cc2ccccc2)NC(=O)[C@@H](NC(=O)[C@H](CC(C)C)NC(C)=O)[C@@H](C)O)C(=O)N[C@@H](C)C(=O)N[C@@H](Cc2ccc(O)cc2)C(=O)N[C@@H](Cc2c[nH]c3ccccc23)C(=O)N[C@@H](C)C(=O)N[C@@H](CCC(N)=O)C(=O)N[C@@H](CC(C)C)C(=O)N1)C(=O)N[C@H](C)C(N)=O [compound 71] | 0.95 | 3.68 | 14.72 | 23.52 | 0% | 0% | 0% | < 5 µM | < 5 µM | % Helix 50% TFE compared to 50% TFE parent (CD) [1]: 123.7%; Molar Ellipticity TFE − Molar Ellipticity Benign [1]: −17835.9 deg cm^2 dmol^−1; Molar Ellipticity 50% TFE (222 in 50% TFE) [1]: −17957 deg cm^2 dmol^−1; Molar Ellipticity Benign (222 in 0% TFE) [1]: −121.2 deg cm^2 dmol^−1; % Helix benign compared to 50% TFE parent (CD) [1]: 0.8%; caspase 1 μM (Caspase 3): 1.02
10 | CCCC[C@H](NC(=O)[C@H](C)NC(=O)[C@H](C)NC(=O)[C@]1(C)CCC/C=C/CCCCCC[C@@](C)(NC(=O)[C@H](Cc2ccccc2)NC(=O)[C@@H](NC(=O)[C@H](CC(C)C)NC(C)=O)[C@@H](C)O)C(=O)N[C@@H](C)C(=O)N[C@@H](Cc2ccc(O)cc2)C(=O)N[C@@H](Cc2c[nH]c3ccccc23)C(=O)N[C@@H](C)C(=O)N[C@@H](CCC(N)=O)C(=O)N[C@@H](CC(C)C)C(=O)N1)C(=O)N[C@@H](C)C(N)=O [compound 69] | 4.34 | 16.39 | 26.59 | 26.11 | 1% | −0.5% | 5% | < 5 µM | < 5 µM | % Helix 50% TFE compared to 50% TFE parent (CD) [1]: 148.2%; Molar Ellipticity TFE − Molar Ellipticity Benign [1]: −21407.1 deg cm^2 dmol^−1; Molar Ellipticity 50% TFE (222 in 50% TFE) [1]: −21509.7 deg cm^2 dmol^−1; Molar Ellipticity Benign (222 in 0% TFE) [1]: −102.6 deg cm^2 dmol^−1; % Helix benign compared to 50% TFE parent (CD) [1]: 0.7%; caspase 1 μM (Caspase 3): 9.51
11 | CC[C@H](C)[C@H](NC(=O)[C@H](C)NC(=O)[C@H](C)NC(=O)[C@]1(C)CCCC=CCCCCCC[C@@](C)(NC(=O)[C@H](Cc2ccccc2)NC(=O)[C@@H](NC(=O)[C@H](CC(C)C)NC(C)=O)[C@@H](C)O)C(=O)N[C@@H](C)C(=O)N[C@@H](Cc2ccc(O)cc2)C(=O)N[C@@H](Cc2c[nH]c3ccccc23)C(=O)N[C@@H](C)C(=O)N[C@@H](CCC(N)=O)C(=O)N[C@@H](CC(C)C)C(=O)N1)C(=O)N[C@@H](C)C(N)=O (single isomer, unassigned) [compound 65] | 1 | 6 | 28 | 34 | 0% | 0% | 2% | 5 to 15 µM | < 5 µM | 
12 | LTFAEYWALLAAAAAAA (not fully specified; N-terminal acetyl; $r8 at 4 crosslinked by all-carbon olefin staple to $ at 11; D-Ala (a) at C-terminus; C-terminal amide, stapled peptidomimetic macrocycle) [SP608, Ac-LTF$r8EYWALL$AAAAAa-NH2] |  |  |  |  |  |  |  |  |  | Ki (MDM2 (In-house, 41 kD)): ≤ 10 nM
